In patent publication US10624893B2 (priority 2016, dated 2020):
Converted amounts (≈) assume the structure as drawn. Read-outs that look alike come from different tables or passages of the source.

Tested on: M. tuberculosis drug resistant strains
Test: microbe, parasite or virus in culture
Assay type: cell-based
Conditions: Mycobacterium tuberculosis, cholesterol medium

In the case of Cc1cccc(OC2CCN(Cc3cc(=O)[nH]c(=O)[nH]3)CC2)c1C [Test Compound, 6-((4-(2,3-dimethylphenoxy)piperidin-1-yl)methyl)pyrimidine-2,4(1H,3H)-dione], the MIC (ERDMAN, strain Erdman, DS, read-out: MIC 1) is reported as 0.78 µM (≈ 0.257 µg/mL), the MIC (ERDMAN, strain Erdman, DS, read-out: MIC 2) is reported as 0.6 µM (≈ 0.198 µg/mL) and the MIC (H37RV, strain H37Rv, DS, read-out: MIC 2) is reported as 0.39 µM (≈ 0.128 µg/mL). For the same compound, the MIC ([…], read-out: MIC 2) was 0.6 µM (≈ 0.198 µg/mL), the MIC (strain CDC1551, DS, read-out: MIC 1) was 0.78 µM (≈ 0.257 µg/mL) and the MIC (strain CDC1551, DS, read-out: MIC 2) was 0.39 µM (≈ 0.128 µg/mL). It also gave an MIC (strain HN878, DS, read-out: MIC 1) of 0.78 µM (≈ 0.257 µg/mL), an MIC (strain HN878, DS, read-out: MIC 2) of 0.6 µM (≈ 0.198 µg/mL) and an MIC (strain K03b00DS, DS, read-out: MIC 1) of 0.3 µM (≈ 0.0988 µg/mL). For the same compound, the MIC (strain K03b00DS, DS, read-out: MIC 2) was 0.2 µM (≈ 0.0659 µg/mL), the MIC (strain K04b00DS, DS, read-out: MIC 1) was 0.39 µM (≈ 0.128 µg/mL) and the MIC (strain K07b00DS, DS, read-out: MIC 1) was 0.6 µM (≈ 0.198 µg/mL). For the same compound, the MIC (strain K07b00DS, DS, read-out: MIC 2) was 0.39 µM (≈ 0.128 µg/mL), the MIC (strain K08b00DS, DS, read-out: MIC 1) was 0.6 µM (≈ 0.198 µg/mL) and the MIC (strain K08b00DS, DS, read-out: MIC 2) was 0.39 µM (≈ 0.128 µg/mL). For the same compound, the MIC (strain K11b00DS, DS, read-out: MIC 2) was 0.78 µM (≈ 0.257 µg/mL), the MIC (strain K12b00DS, DS, read-out: MIC 1) was 0.2 µM (≈ 0.0659 µg/mL) and the MIC (strain K12b00DS, DS, read-out: MIC 2) was 0.6 µM (≈ 0.198 µg/mL). It also gave an MIC (strain K13b00DS, DS, read-out: MIC 1) of 0.78 µM (≈ 0.257 µg/mL), an MIC (strain K13b00DS, DS, read-out: MIC 2) of 0.6 µM (≈ 0.198 µg/mL) and an MIC (strain K14b00DS, DS, read-out: MIC 2) of 0.6 µM (≈ 0.198 µg/mL). The MIC (strain K16b00DS, DS, read-out: MIC 1) was 0.39 µM (≈ 0.128 µg/mL), the MIC (strain K16b00DS, DS, read-out: MIC 2) was 0.2 µM (≈ 0.0659 µg/mL) and the MIC (strain K35b00DS, DS, read-out: MIC 1) was 0.6 µM (≈ 0.198 µg/mL). It also gave an MIC (strain K35b00DS, DS, read-out: MIC 2) of 0.39 µM (≈ 0.128 µg/mL), an MIC (strain NIH_G1DS, DS, read-out: MIC 1) of 0.78 µM (≈ 0.257 µg/mL) and an MIC (strain NIH_G1DS, DS, read-out: MIC 2) of 0.39 µM (≈ 0.128 µg/mL). It also gave an MIC (strain NIH_G12, read-out: MIC 1) of 0.78 µM (≈ 0.257 µg/mL) and an MIC (strain NIH_G13, read-out: MIC 1) of 0.6 µM (≈ 0.198 µg/mL).
